# Reference: patent publication US12460184B2, “Cell primed with CTGF-D4 and insulin or IGF-1 and use in methods for cardiac tissue repair” (University of Vermont and State Agriculture College, priority 2013, dated 2025)
# Columns and labels:
# [1] = tested on: adult rat CPCs; test: CPC protection during hypoxia (1% oxygen, 48 hrs); format: cell-based; settings: for CdM-mediated protection of CPCs under hypoxic conditions: STAT3 inhibitor 10 μM added to CdM; for CPC number after hypoxia: 30 ng/ml alone, control SFM with 1% BSA 9004 cells, mean±SD; for protection of CPCs against 48 hr of hypoxia: 1 ng/ml (each) in SFM
# Experimental: (§1) Adult rat CPCs and cardiac fibroblasts were plated at 500 cells/cm^2 and cultured in their respective growth mediums. Three days after plating, the medium was removed, the wells were washed twice with PBS, and the cells were then exposed to CdM or to fresh serum-free medium (Alpha-MEM). For time course proliferation studies, CdM and serum-free medium were changed every 2 days. In signal transduction inhibitor studies, the following pharmacological inhibitors were used: AG490, inhibitor of Jak2/STAT3 pathway; Stattic, inhibitor of STAT3; LY294002, inhibitor of phosphatidylinositol 3-kinase (PI3K)/Akt pathway; and PD98059, inhibitor of extracellular signal-regulated kinase (ERK). All of the inhibitors were purchased from Calbiochem (Darmstadt, Germany) and were dissolved in dimethyl sulfoxide (DMSO). CPCs were cultured in CdM with the inhibitors or with the equivalent volume of DMSO as a control for 48 hrs. In cell protection studies, 3 days after plating, medium was replaced with either the CdM or serum-free medium and the cells were exposed to hypoxia in a specialized incubator (1% oxygen) for 48 hrs. The hypoxia incubator was a model that measured both CO2 and O2 (Thermo Electron, Forma Series II, model 3130). Oxygen was maintained at 1% by the injection of nitrogen gas and was monitored continuously.
# Cell numbers were quantified by the fluorescent labeling of nucleic acids (CyQuant dye; Molecular Probes, Carlsbad, CA) and with a microplate fluorescence reader (FL×800; Bio-Tek Instruments Inc., Winooski, VT) set to 480 nm excitation and 520 nm emission. Each experiment was repeated a minimum of 3 times.
# [2] = tested on: adult rat CPCs; test: Signal transduction inhibitor studies, CPCs cultured in CdM; format: cell-based; settings: for cell number ratio to control cell number: CPCs in MSC CdM, 48 hrs, control CdM+DMSO = 100%
# Experimental: as §1, with “continuously. Cell numbers were quantified by the fluorescent labeling of nucleic acids (CyQuant dye; Molecular Probes, Carlsbad, CA) and with a microplate fluorescence reader (FL×800; Bio-Tek Instruments Inc., Winooski, VT) set to 480 nm excitation and 520 nm emission. Each experiment was repeated a minimum of 3 times.” for “continuously.”
# [3] = tested on: Akt; test: Immunoblotting for phosphorylated Akt in CPCs; format: cell-based, rat; settings: recombinant human Insulin, 30 min incubation
# Experimental: (§2) Cells were lysed in a buffer that consisted of 0.1% sodium dodecyl sulphate (SDS) and complete protease inhibitor cocktail (Roche, Basel, Switzerland) in PBS. Protein concentration was determined by the DC protein assay (Biorad, Hercules, CA). Twenty μg of protein was separated by SDS-PAGE. After electrophoresis, the gels were electroblotted to polyvinylidene difluoride (PVDF) membranes. All electrophoresis and electroblotting used Novex reagents and systems (Invitrogen, Carlsbad, Calif.). The blots were blocked for 1 hr at RT in 5% nonfat dry milk in PBS with 0.1% Tween 20 (PBST), washed 3×5 min in PBST, and incubated in primary antibodies in PBST with 5% BSA overnight at 4° C. After 3×5 min washes in PBST, the blots were incubated in secondary antibody conjugated to horseradish peroxidase conjugate (1:2000, Sigma) in PBST for 1 hr at RT. Unbound secondary antibody was removed and positive bands were detected with a chemiluminescent reaction. The primary antibodies for immunoblotting were Ki67 (clone SP6, 1:200, Abcam, Cambridge, MA); p-STAT3 (Tyr705, 1:1000), total STAT3 (1:1000), p-Akt (Ser 473, 1:1000)(Cell signaling); and β-actin (1:5000, Sigma).
# [4] = tested on: EPDCs; test: EPDC protection by CTGF-D4 under hypoxia (1% oxygen, 48 hr); format: cell-based, rat; settings: blocker added
# [5] = tested on: STAT3; test: Immunoblotting for phosphorylated STAT3 in CPCs; format: cell-based, rat; settings: 3 ng/ml, 30 min, SFM containing 1% BSA
# Experimental: as §2
# [6] = tested on: canonical Wnt pathway; test: Canonical Wnt pathway signaling in EPDCs (p-GSK3β, nuclear β-catenin); format: cell-based, rat
# [7] = tested on: EPDCs; test: Ex vivo adhesion assay of EPDCs to fibronectin; format: cell-based; settings: 40 ng/ml
# [8] = tested on: EPDCs; test: Western blots for differentiation and adhesion/migration markers in EPDCs; format: cell-based; settings: exposure to CTGF-D4
molecule,measurement,setting,value
N#C/C(=C/c1ccc(O)c(O)c1)C(=O)NCc1ccccc1 [AG490],CdM-mediated protection of CPCs under hypoxic conditions,[1],abolished CdM-mediated protection
same,cell number ratio to control cell number,[2]; 1 μM,96.3±0.9%
same,cell number ratio to control cell number,[2]; 5 μM,89.5±0.9%
same,CPC number,"[2]; 10 μM, CPCs in CdM from p75MSCs or fibroblasts",inhibitory effect
same,cell number ratio to control cell number,[2]; 10 μM,43.4±2.4%
COc1cccc(-c2cc(=O)c3ccccc3o2)c1N [PD98059],CPC proliferation in CdM,[2]; ERK inhibitor,did not diminish CPC proliferation
"O=[N+]([O-])c1ccc2c(c1)S(=O)(=O)C=C2 [Stattic, reference compound]",CdM-mediated protection of CPCs under hypoxic conditions,[1],abolished CdM-mediated protection
same,growth of CPCs in p75MSC CdM,"[2]; 10 μM, vs DMSO vehicle, day 2 and 4",abolished
IGF-1: human Insulin-like growth factor 1,CPC number after hypoxia,[1],"14,894±559 cells"
"Insulin: recombinant human Insulin, dimer of A-chain and B-chain",protection of CPCs against 48 hr of hypoxia,[1],did not protect CPCs
same,CPC number after hypoxia,[1],"13,507±1,473 cells"
same,CPC survival and proliferation,[1]; recombinant human Insulin,increased also CPC survival and proliferation
same,p-Akt in CPCs,[3],induced p-Akt in a dose-responsive manner
"Dkk-1: a secreted inhibitor of Lrp6 (protein, UniProt O94907 32-266, looked up) Dickkopf-related protein 1: TLNSVLNSNAIKNLPPPLGGAAGHPGSAVSAAPGILYPGGNKYQTIDNYQPYPCAEDEECGTDEYCASPTRGGDAGVQICLACRKRRKRCMRHAMCCPGNYCKNGICVSSDQNHFRGEIEETITESFGNDHSTLDGYSRRTTLSSKMYHTKGQEGSVCLRSSDCASGLCCARHFWSKICKPVLKEGQVCTKHRRKGSHGLEIFQRCYCGEGLSCRIQKDHHQASNSSRLHTCQRH",protection of EPDCs conferred by CTGF-D4,[4],significantly reduced the protection
"human CTGF: connective tissue growth factor, full-length polypeptide SEQ ID NO: 1 (protein, listed as Homo sapiens) MTAASMGPVRVAFVVLLALCSRPAVGQNCSGPCRCPDEPAPRCPAGVSLVLDGCGCCRVCAKQLGELCTERDPCDPHKGLFCDFGSPANRKIGVCTAKDGAPCIFGGTVYRSGESFQSSCKYQCTCLDGAVGCMPLCSMDVRLPSPDCPFPRRVKLPGKCCEEWVCDEPKDQTVVGPALAAYRLEDTFGPDPTMIRANCLVQTTEWSACSKTCGMGISTRVTNDNASCRLEKQSRLCMVRPCEADLEENIKKGKKCIRTPKISKPIKFELSGCTSMKTYRAKFCGVCTDGRCCTPHRTTTLPVEFKCPDGEVMKKNMMFIKTCACHYNCPGDNDIFESLYYRKMYGDMA",p-STAT3 in CPCs,[5],significantly induced p-STAT3
"CTGF-D4: recombinant human C-terminal (domain 4) CTGF peptide, SEQ ID NO: 2 (protein, listed as Homo sapiens) MGKKCIRTPKISKPIKFELSGCTSMKTYRAKFCGVCTDGRCCTPHRTTTLPVEFKCPDGEVMKKNMMFIKTCACHYNCPGDNDIFESLYYRKMYGDMA","signaling through the canonical Wnt pathway (p-GSK3β, nuclear β-catenin)",[6],promoted signaling through the canonical Wnt pathway
same,adhesion of EPDCs to fibronectin,[7],promoted adhesion of EPDCs to fibronectin
same,protection of CPCs against 48 hr of hypoxia,[1],did not protect CPCs
same,"EMT-like differentiation (SMA, CD90, ETrB protein levels)",[8],promoted EMT-like differentiation
same,levels of Von Willebrand Factor,[8],did not seem to be affected
